Results taken from patent US20210106674A1, “Gene Therapy For Mesothelioma” (The Trustees of the University of Pennsylvania, priority 2019, published 2021).
Marks after values point to notes of the source that are not given here.

Columns and labels:
CD8 T cells and NK cells = experiment: Flow cytometry of PBMC: CD69 on CD8 T cells and NK cells; assay type: in vivo, Human
Experimental: PBMCs were studied from a set of six patients who responded to therapy and 6 patients who progressed with treatment (Table 6).
PBMC were thawed and the activation of natural killer cell (NK) and T cells was assessed using flow cytometry as detailed in the Supplemental Methods (see also Ref 19).
All mAbs were from BD Biosciences (San Diego, Calif.) and R&D systems (Minneapolis, Minn., USA).
Details of the cell preparation and staining have been previously published (Stevenson J P, Kindler H L, Papasavvas E, et al. Immunological effects of anti-transforming growth factor-beta (TGF-beta) antibody GC1008 in cancer patients with malignant pleural mesothelioma (MPM). Oncoimmunology 2013; 8:e26218). Analysis was done by collecting 100,000 live lymphocytes (defined by size and granularity in FSC and SSC). Dead cells were excluded by manual gating in FSC/SSC. Detection thresholds were set according to isotype-matched negative controls. Results were expressed as Mean Fluorescent Intensity (MFI) and percent (%) of lymphocytes, NK cells (Lin3-CD56dimCD16+), CD3+CD4+ or CD3+CD8+ T cells. Data analysis was performed using FloJo software (Tree Star, San Carlos, Calif.).
Data were described as medians, 25th and 75th percentiles. Comparisons between responders (n=6) and non-responders (n=6) at each time point were done using Wilcoxon Kruskal-Wallis tests (Rank Sums). Differences between time points for all patients (n=12) were tested using Wilcoxon Signed-Rank or paired t-tests depending on data distribution, while differences between time points in responders (n=6) and in non-responders (n=6) were tested using Wilcoxon Signed-Rank. p values that were less than 0.05 were considered statistically significant. All statistics used JMP Pro11®.

[1] = test system: purified mesothelin and extracts from allogeneic mesothelioma cell lines; experiment: Immunoblotting with patient serum for induced anti-tumor antibodies; assay type: in vivo, Human; parameters: key to Antibody Response: 0 = no change; 1 = marginal changes; 2 = significant changes
Experimental: Enzyme-linked immunosorbent assays (ELISAs) were used to measure IFN-α2b levels (PBL Biomedical Labs; Piscataway, N.J.), as well as serum mesothelin-related protein (SMRP) levels (Fujirebio, Inc., Malvern, Pa.). Neutralizing adenovirus antibody titers (Nabs) were assessed as previously described (5). To detect induced humoral responses against tumor antigens, we performed immunoblotting against purified mesothelin and extracts from allogeneic mesothelioma cell lines using pre- and post-treatment serum as previously described (4-6). See Supplemental Methods for details.
To detect induced humoral responses against tumor antigens, we performed immunoblotting against purified mesothelin and extracts from allogeneic mesothelioma cell lines. Purified mesothelin was purchased from Raybiotech (Norcross, Ga.). Cell lines were derived from patient pleural fluid samples from previous clinical trials and were grown in culture as previously described (Sterman D H, Reico A, Haas A R, et al. A phase I trial of repeated Intrapleural adenoviral-mediated interferon-beta gene transfer for mesothelioma and metastatic pleural effusion. Mol Ther 2010; 18: 852-60). Extracts from cells or purified proteins were prepared and immunoblotted with patient serum (diluted at 1:1500) from time points before treatment, and 6 weeks after treatment as previously described (Sterman et al., 2010). Multiple exposures were obtained and comparisons were made on the exposures in which the major bands detected on pre-treatment blots were of equal intensity in post-treatment blots.
The blots were semi-quantitatively scored as follows: 0=no change in any bands; 1=minimal changes (i.e. increased intensity in one or two bands); 2=clear increases in >2 bands or appearance of new bands.

[2] = test system: serum mesothelin-related protein (SMRP); experiment: ELISA of serum mesothelin-related protein (SMRP); assay type: in vivo, Human; conditions: compared to baseline
From the text: See Supplemental Methods for details.

MPM [3] = conditions: published trial, Pem re-treat with pem; cited from earlier work
MPM [4] = experiment: Recent published trials of chemotherapy in MPM (historical comparison); assay type: in vivo; conditions: average of three published trials of pemetrexed re-treatment (103 patients)
[5] = post-treatment serum, 39 patients analysed

nadofaragene firadenovec [Ad.IFN]
CD8 T Cells: % Positive for CD69 (CD8 T cells and NK cells; Good Responders, D 2, median): 26.6 (IQR: 23.2- %
NK Cells: % Positive for CD69 (CD8 T cells and NK cells; Good Responders, D 2, median, p = 0.03 vs Baseline): 66.6* (IQR: 42.1- %
CD8 T Cells: % Positive for CD69 (CD8 T cells and NK cells; Good Responders, D 15, median): 16.6 (IQR: 11.5- %
NK Cells: % Positive for CD69 (CD8 T cells and NK cells; Good Responders, D 15, median): 20.9 (IQR: 5.8- %
CD8 T Cells: % Positive for CD69 (CD8 T cells and NK cells; Poor Responders, D 2, median): 22.1 (IQR: 9.9- %
NK Cells: % Positive for CD69 (CD8 T cells and NK cells; Poor Responders, D 2, median): 33.3 (IQR: 22.8- %
CD8 T Cells: % Positive for CD69 (CD8 T cells and NK cells; Poor Responders, D 15, median): 14.9 (IQR: 10.5- %
NK Cells: % Positive for CD69 (CD8 T cells and NK cells; Poor Responders, D 15, median): 22.7 (IQR: 13.2- %
Antibody Response ([1]; patient 402): 2
Antibody Response ([1]; patient 404): 0
Antibody Response ([1]; patient 405): 2
Antibody Response ([1]; patient 406): 1
Antibody Response ([1]; patient 411): 0
Antibody Response ([1]; patient 416): 0
Antibody Response ([1]; patient 417): 2
Antibody Response ([1]; patient 421): 2
Antibody Response ([1]; patient 422): 2
Antibody Response ([1]; patient 423): 1
Antibody Response ([1]; patient 425): 1
Antibody Response ([1]; patient 429): 1
patients with clear increases in anti-tumor bands [1, 5]: 14 patients
patients with minimal changes in tumor bands [1, 5]: 14 patients
patients with no changes in number or intensity of anti-tumor immunoblot bands [1, 5]: 11 patients
patients with a greater than 20% decrease in SMRP level ([2]; at some time point): 15 of the 27 patients
patients with more than a 20% increase in SMRP level [2]: 12 of the 27 patients

Nc1nc2[nH]cc(CCc3ccc(C(=O)N[C@@H](CCC(=O)O)C(=O)O)cc3)c2c(=O)[nH]1 [pem, pemetrexed]
2 yr OS (MPM [3]): 30%)
Median OS, Average (MPM [4]): 11.7 mo
Response rate, Average (MPM [4]): 18%
TTP/PFS, Average (MPM [4]): 5.1 mo
